Assay results from patent US6913895B1, “Methods for assaying transglycosylase reactions, and for identifying inhibitors thereof” (Advanced Medicine East, Inc., priority 1999, dated 2005).
Values after ≈ are worked out from the molar mass of the structure shown. “Also recorded” adds a separate entry of the source. Like-named read-outs stand apart in the source and are kept apart here. Marks after values point to notes of the source that are not given here.

How the values were obtained:
transglycosylase [1] = assay: Transglycosylase assay: peptidoglycan formation from lipid II accumulated in situ in bacterial membranes; type: biochemical, E. coli; settings: for inhibition of peptidoglycan formation: inhibitor added after formation of lipid II, Triton X-100 removed, 2 hours incubation, paper chromatography
Protocol: Reactions were performed in the following buffer: 50 mM Tris (pH=8.0), 42 mM MgAc, 208 mM KCl, and 0.1% Triton X-100®. Each reaction was performed in a 50 ul reaction volume, containing 25 μg French Pressed bacterial membranes, 0.5 nmoles biotinylated UDP-MurNAc-pentapeptide 10% DMSO final concentration (added in conjunction with inhibitor), and 0.5 uM 14C-GlcNAc (≈20,000 CPM). All components except 14C-GlcNAc were pre-incubated together for 10 min at room temperature. The reactions were incubated an additional 1 hour after addition of ^14C-GlcNAc.
To make the reaction volume more manageable, the Triton was removed with the addition of Detergent-Out resin (Geno-Technology, St. Louis, Mo.). After binding up the inhibiting detergent, the reaction was further incubated for 2 hours to allow for transglycosylation to proceed.
The above-described methods of the invention were used to analyze the activity of three inhibitors. The assay included separate samples of tunicamycin, moenomycin, or bacitracin in various concentrations. These inhibitors were added to their respective samples after formation of lipid II, with the subsequent removal of the transglycosylation blocker Triton X-100®. After 2 hours incubation, aliquots of the solubilized products were analyzed by ascending paper chromatography. The amount of lipid II converted into peptidoglycan is represented by the amount of radioactivity measured in CPM remaining at the origin for each reaction.
Compounds TS0517 (chlorobiphenyl-vancomycin), TS0518 (chlorobiphenyl-desleucyl-vancomycin), TS0523, TS1017, and TS30663 were all assayed using the above-described assay, in which the inhibitors were added to their respective samples after formation of lipid II, with the subsequent removal of Triton X-100®. After 2 hours incubation, aliquots of the solubilized products were analyzed by ascending paper chromatography.

E. faecium CL4931 (VanA) = type: cell-based
peptidoglycan synthesis = settings: at 100 μg/ml, A. viridens membranes; cited from earlier work
E. faecium 49624 = type: cell-based
[2] = test system: E. faecalis CL4877 (VanB); type: cell-based
E. faecalis 29212 = type: cell-based
S. aureus 29213 = type: cell-based
transglycosylase [3] = assay: Transglycosylase assay: peptidoglycan formation from lipid II accumulated in situ in bacterial membranes; type: biochemical, E. coli; settings: UDP-MurNAc-tetrapeptide substrate, inhibitors added after Triton X-100 removal, 2 hour incubation
lipid II formation = assay: Lipid II formation assay in bacterial membranes; type: biochemical, E. coli; settings: for inhibition of lipid II formation: inhibitors added with labeled UDP-GlcNAc and UDP-MurNAc-tetrapeptide (data not shown)
[4] = E. faecium CL4931 (VanA), vancomycin resistant
[5] = E. faecium 49624, vancomycin-sensitive
[6] = E. faecalis CL4877 (VanB), vancomycin resistant
[7] = E. faecalis 29212, vancomycin-sensitive
[8] = S. aureus 29213, vancomycin-sensitive

tunicamycin
inhibition of peptidoglycan formation (transglycosylase [1]): no measurable effect
inhibition of peptidoglycan formation (transglycosylase [1]; listed as tunicamycin): had no effect

moenomycin
MIC (E. faecium CL4931 (VanA); [4]): 0.25 µg/mL
inhibition of peptidoglycan synthesis (peptidoglycan synthesis): < 35%
potency in E. coli system relative to that measured in Allen et al. using A. viridens (transglycosylase [1]; UDP-MurNAc-pentapeptide or UDP-MurNAc-tetrapeptide): 4 orders of magnitude
inhibition of peptidoglycan synthesis, UDP-MurNAc-pentapeptide vs UDP-MurNAc-tetrapeptide (transglycosylase [1]; comparison of the two precursor substrates): equipotent inhibition
inhibition of peptidoglycan formation (transglycosylase [1]): sensitive
IC50 / effect compared with assay without transglycosylation blocker (transglycosylase [1]; with vs without Triton X-100 blocker): identical IC50 values; also recorded: substantially the same
MIC (E. faecium 49624; [5]): >200^c μg/ml
MIC [2, 6]: 0.13 µg/mL
MIC (E. faecalis 29212; [7]): 0.078 µg/mL
MIC (S. aureus 29213; [8]): 0.05 µg/mL

CN[C@H](CC(C)C)C(=O)N[C@H]1C(=O)N[C@@H](CC(N)=O)C(=O)N[C@H]2C(=O)N[C@H]3C(=O)N[C@H](C(=O)N[C@H](C(=O)O)c4cc(O)cc(O)c4-c4cc3ccc4O)[C@H](O)c3ccc(c(Cl)c3)Oc3cc2cc(c3O[C@@H]2O[C@H](CO)[C@@H](O)[C@H](O)[C@H]2O[C@H]2C[C@](C)(NCc3ccc(-c4ccc(Cl)cc4)cc3)[C@H](O)[C@H](C)O2)Oc2ccc(cc2Cl)[C@H]1O [CBP-vancomycin, chlorobiphenyl-vancomycin]
MIC (E. faecium CL4931 (VanA); [4]): 12.5 µg/mL (≈ 7.58 µM)
inhibition of peptidoglycan synthesis (transglycosylase [3]): far more effective
inhibition of lipid II formation (lipid II formation): no inhibition of lipid II formation
inhibition of peptidoglycan formation (transglycosylase [1]): showed inhibition of peptidoglycan formation
MIC (E. faecium 49624; [5]): 0.062 µg/mL (≈ 0.0376 µM)
MIC [2, 6]: 12.5 µg/mL (≈ 7.58 µM)
MIC (E. faecalis 29212; [7]): 0.25 µg/mL (≈ 0.152 µM)
MIC (S. aureus 29213; [8]): 0.25 µg/mL (≈ 0.152 µM)

C[C@@H]1O[C@@H](O[C@H]2[C@H](Oc3c4cc5cc3Oc3ccc(cc3Cl)[C@@H](O)[C@@H](N)C(=O)N[C@@H](CC(N)=O)C(=O)N[C@H]5C(=O)NC3C(=O)NC(C(=O)N[C@H](C(=O)O)c5cc(O)cc(O)c5-c5cc3ccc5O)[C@H](O)c3ccc(c(Cl)c3)O4)O[C@H](CO)[C@@H](O)[C@@H]2O)C[C@](C)(NCc2ccc(-c3ccc(Cl)cc3)cc2)[C@@H]1O (mixture of isomers) [CBP-dl-vancomycin, chlorobiphenyl-desleucyl-vancomycin]
MIC (E. faecium CL4931 (VanA); [4]): 12.5 µg/mL (≈ 8.21 µM)
inhibition of peptidoglycan synthesis (transglycosylase [3]): far more effective
inhibition of lipid II formation (lipid II formation): no inhibition of lipid II formation
inhibition of peptidoglycan formation (transglycosylase [1]): showed inhibition of peptidoglycan formation
MIC (E. faecium 49624; [5]): 1.56 µg/mL (≈ 1.02 µM)
MIC [2, 6]: 25 µg/mL (≈ 16.4 µM)
MIC (E. faecalis 29212; [7]): 3.12 µg/mL (≈ 2.05 µM)
MIC (S. aureus 29213; [8]): 3.12 µg/mL (≈ 2.05 µM)

CN[C@H](CC(C)C)C(=O)N[C@H]1C(=O)N[C@@H](CC(N)=O)C(=O)N[C@H]2C(=O)N[C@H]3C(=O)N[C@H](C(=O)N[C@H](C(=O)O)c4cc(O)cc(O)c4-c4cc3ccc4O)[C@H](O)c3ccc(c(Cl)c3)Oc3cc2cc(c3O[C@@H]2O[C@H](CO)[C@@H](O)[C@H](O)[C@H]2O[C@H]2C[C@](C)(N)[C@H](O)[C@H](C)O2)Oc2ccc(cc2Cl)[C@H]1O [Vancomycin, vancomycin]
MIC (E. faecium CL4931 (VanA); Enterococcus faecium): 1250 µg/mL (≈ 863 µM)
inhibition of peptidoglycan synthesis (transglycosylase [3]): only minimal inhibition
inhibition of lipid II formation in vitro (lipid II formation; substrate with D-ala-D-ala dipeptide moiety): capable of inhibiting the formation of lipid II in vitro
MIC (E. faecium 49624; Enterococcus faecium, 49624): 1.25 µg/mL (≈ 0.863 µM)
MIC ([2]; Enterococcus faecalis): 1250 µg/mL (≈ 863 µM)
MIC (E. faecalis 29212; Enterococcus faecalis, 29212): 3.12 µg/mL (≈ 2.15 µM)
MIC (S. aureus 29213; Staphylococcus aureus, 29213): 1.25 µg/mL (≈ 0.863 µM)
